Assays:
HeLa cells (autophagy) = assay: Imaging of autophagic vacuoles and autophagosomes in HeLa cells (Cell-Tracker Green CMFDA); type: cell-based; conditions: 10 μM, 90 min
Method: (§1) Cancer cells HeLa and 4T1 and normal cells HEK293 were cultured using a complete medium (DMEM medium containing 10% fetal bovine serum and 1% penicillin/streptomycin) in a saturated-humidity incubator at 37 °C and 5% CO2, and passaged once every 2 to 3 days.
(§2) When the cells grew to the logarithmic phase, they were transferred to confocal dishes or 96-well plates: Cells fully grown in a T25 cell culture flask were first washed with PBS, and then digested with 1 mL of trypsin for 1 to 2 minutes (0.25% trypsin for HeLa and 4T1, and 0.025% trypsin for HEK293). After removal of trypsin, fresh medium was added, and the cells were pipetted uniformly and counted, whose density was controlled by the amount of medium added. (1) The cells were inoculated into a confocal glass-bottom culture dish, and was cultured in a 5% CO2 incubator.When the cells grew to a coverage of ~70% they were used for confocal imaging experiments. (2) The cells were inoculated into a low-attachment U-bottom 96-well plate, and when the diameter of the cell spheroids reached ~800 μm, the cell spheroids were used for antitumor evaluation.
Two groups of HeLa cells grown on confocal glass-bottom culture dishes prepared in Test example 1 were firstly washed with PBS. Then one group was incubated in the dark for 90 min in complete medium with 10 μM of the compound synthesized in Example 1, and the other group was incubated in complete medium with an equal amount of DMSO as a blank control sample. Subsequently, the cells were incubated in DMEM with 5 μM green live-cell tracking probe (Cell-Tracker Green CMFDA) for 30 min. After PBS washing, the cells were placed in DMEM and observed under a laser scanning confocal microscope. The fluorescence distribution of Cell-Tracker Green in cells from the two groups was recorded.
After HeLa cells grown on confocal glass-bottom culture dish prepared in Test example 1 was washed with PBS, they were incubated in complete medium with 10 μM of the compound synthesized in Example 2 in the dark for 90 min, and then incubated in DMEM with 5 μM green live-cell tracking probe (Cell-Tracker Green CMFDA) in the dark for 30 min followed by PBS washing. The cells were placed in DMEM and observed under a laser scanning confocal microscope. The fluorescence distribution of Cell-Tracker Green in the cells was recorded.

[1] = system: HeLa cells (mitochondria and lysosomes); assay: Localization observation in HeLa cells (colocalization with MitoTracker Green and LysoBrite NIR); type: cell-based; conditions: 2 μM, 30 min, confocal colocalization
Method: as §1
as §2, with “evaluation. […]” for “evaluation.”

[2] = system: cancer cells HeLa and 4T1 and normal cells HEK293; assay: Selectivity for tumor cells (red fluorescence intensity in cancer vs normal cells); type: cell-based; conditions: 4T1 vs HEK293, 1 μM, 30 min; for fluorescence intensity, cancer cells vs normal cells, complete medium / selectivity for cancer cells: complete medium (serum-containing)
Method: as §1, §2
After three groups of cancer cells HeLa and 4T1 and normal cells HEK293 individually grown on confocal glass-bottom culture dishes prepared in Test example 1 were washed with PBS, one group was incubated in complete medium (serum-containing) with 1 μM of the compound synthesized in Example 1 in the dark for 30 min, and the second group was incubated in complete medium with 1 μM of (E)-4-(2-(5-methoxy-1H-indol-3-yl)vinyl)-1-n-octylquinolinium iodide in the dark for 30 min, and the third group was incubated in DMEM (serum-free)with 1 μM of the compound synthesized in Example 1 in the dark for 30 min. After PBS washing, all the cells were placed in DMEM, and differences in red fluorescence intensity from the three groups of tumor cells and normal cells were observed and recorded under a laser scanning confocal microscope (EX561 nm, EM600-700 nm).

HeLa cells = assay: Verification of how compound enters cells (37 °C vs 4 °C); type: cell-based; conditions: 2 μM, 30 min, complete medium; for way of entering cells: 37 °C vs 4 °C
Method: as §1, §2
After two groups of HeLa cells grown on confocal glass-bottom culture dishes prepared in Test example 1 were washed with PBS, one group was incubated at 37 °C in the dark for 30 min in complete medium with 2 μM of the compound synthesized in Example 1, and the other group was incubated at 4 °C for the same period in complete medium with 2 μM of compound synthesized in Example 1. After PBS washing, the incubated cells were placed in DMEM, and red fluorescence distribution in cells from the two groups was observed and recorded using a laser scanning confocal microscope (EX561 nm, EM600-700 nm).
After two groups of HeLa cells grown on confocal glass-bottom culture dishes prepared in Test example 1 were washed with PBS, one group was incubated in complete medium with 2 μM of (E)-4-(2-(5-methoxy-1H-indol-3-yl)vinyl)-1-n-octylquinolinium iodide in the dark at 37 °C for 30 min, and the other group was incubated in complete medium solution with 2 μM (E)-4-(2-(5-methoxy-1H-indol-3-yl)vinyl)-1-n-octylquinolinium iodide in the dark at 4 °C for the same period. After PBS washing, the cells were placed in DMEM, and red fluorescence in cells from the two groups was observed and recorded using a laser scanning confocal microscope (EX561 nm, EM600-700 nm).

bovine serum albumin = bovine serum albumin (Bos taurus, UniProt P02769); assay: Binding constant with albumin (fluorescence quenching, double-logarithmic fitting)
Sequence of bovine serum albumin (P02769 25-607): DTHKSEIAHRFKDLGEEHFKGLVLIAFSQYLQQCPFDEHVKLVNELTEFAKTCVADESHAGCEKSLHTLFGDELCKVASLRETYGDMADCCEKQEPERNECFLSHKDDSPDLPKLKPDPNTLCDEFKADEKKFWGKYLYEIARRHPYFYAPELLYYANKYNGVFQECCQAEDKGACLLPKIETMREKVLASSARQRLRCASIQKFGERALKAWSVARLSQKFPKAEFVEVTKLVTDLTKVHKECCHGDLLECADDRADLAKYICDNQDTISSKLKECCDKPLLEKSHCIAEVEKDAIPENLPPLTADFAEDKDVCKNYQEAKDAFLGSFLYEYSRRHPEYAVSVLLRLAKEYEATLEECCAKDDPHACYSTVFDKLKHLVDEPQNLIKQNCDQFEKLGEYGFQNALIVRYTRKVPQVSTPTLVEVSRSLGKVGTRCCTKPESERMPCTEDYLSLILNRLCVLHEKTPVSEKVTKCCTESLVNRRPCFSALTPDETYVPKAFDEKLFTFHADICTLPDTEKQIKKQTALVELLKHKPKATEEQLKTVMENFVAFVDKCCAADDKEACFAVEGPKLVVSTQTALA
Method: The compound synthesized in Example 1 was added at different concentrations (0 to 15 μM) to PBS containing bovine serum albumin, and then fluorescence spectra of bovine serum albumin were measured using a fluorescence spectrometer (280 nm EX).

HeLa cell spheroids = assay: Changes in growth of HeLa cell spheroids; type: cell-based; conditions: 10 μM, 24 h
Method: as §1, §2
After two groups of HEK293 cell spheroids and two groups of HeLa cell spheroids prepared in Test example 1 were photographed under a microscope, one group of HEK293 and HeLa cell spheroids was incubated in a complete medium containing 10 μM of the compound synthesized in Example 1 as an experimental administration group, and the other group of HEK293 and HeLa cell spheroids was incubated in a complete medium containing the same volume of DMSO as a blank control. After 24 h, photographs were taken again using the microscope to observe changes in morphology and size of the cell spheroids.

HEK293 cell spheroids = assay: Changes in growth of HEK293 cell spheroids; type: cell-based; conditions: 10 μM, 24 h
Method: as §1
as §2, with “evaluation. […]” for “evaluation.”

[3] = system: HeLa cells (lysosomal pH); assay: Changes in lysosomal pH of HeLa cells (LysoSensor Green DND-189); type: cell-based; conditions: 10 μM, 30 min, vs DMSO blank control
Method: as §1
as §2, with “(2) The cells were inoculated into a low-attachment U-bottom 96-well plate, and when the diameter of the cell spheroids reached ~800 μm, the cell spheroids were used for antitumor evaluation.” left out
Two groups of HeLa cells grown on confocal glass-bottom culture dishes prepared in Test example 1 were incubated with 2 μM lysosomal green fluorescent probe (LysoSensor Green DND-189) in the dark for 30 min in a CO2 incubator, and then washed with PBS. […] The changes in the fluorescence brightness of LysoSensor Green in cells from the two groups were recorded.

[4] = system: HeLa cells (mitochondrial membrane potential); assay: Changes in mitochondrial membrane potential of HeLa cells (rhodamine 123); type: cell-based; conditions: 10 μM, 30 min, vs DMSO blank control
Method: as §1
as §2, with “(2) The cells were inoculated into a low-attachment U-bottom 96-well plate, and when the diameter of the cell spheroids reached ~800 μm, the cell spheroids were used for antitumor evaluation.” left out
Two groups of HeLa cells grown on confocal glass-bottom culture dishes prepared in Test example 1 were both incubated with 5 μM rhodamine 123 in darkness in a CO2 incubator for 30 min and then washed with PBS. […] After PBS washing, the cells were observed under a laser scanning confocal microscope, and the changes of the fluorescence brightness from rhodamine 123 in the two groups of cells were recorded.

[5] = system: HeLa cells (fusion of mitochondria and lysosomes); assay: Fusion of mitochondria and lysosomes in HeLa cells (MitoTracker Green / LysoBrite NIR); type: cell-based; conditions: compound 10 μM in complete medium, ~5 h
Method: as §1
as §2, with “(2) The cells were inoculated into a low-attachment U-bottom 96-well plate, and when the diameter of the cell spheroids reached ~800 μm, the cell spheroids were used for antitumor evaluation.” left out
After two groups of HeLa cells grown on confocal glass-bottom culture dishes prepared in Test example 1 were washed with PBS, both were incubated with 1 μM mitochondrial green fluorescent probe (MitoTracker Green) in the dark for 30 min, followed by 30 min incubation with 1 μM lysosomal deep-red probe (LysoBrite NIR). […] The fluorescence distribution of MitoTracker Green and LysoBrite NIR in cells from the two groups was recorded.

With CCCCCCCCCCCC[n+]1ccc(/C=C/c2c[nH]c3ccccc23)c2ccccc21.[I-] [Example 2, (E)-4-(2-(1H-indol-3-yl)vinyl)-1-n-dodecylquinolinium iodide] the “autophagy activation / modulation” value (HeLa cells (autophagy)) was “autophagy-modulating activity”, the “generation of vacuoles (autophagic vacuoles/vesicles and autophagosomes) in the cytoplasm” value (HeLa cells (autophagy)) was “a large number of vacuoles (autophagic vesicles and autophagosomes) are generated” and the “distribution of compound fluorescence in organelles” value [1] was “distributed in the two organelles, mitochondria and lysosomes”.

CCCCCCCC[n+]1ccc(/C=C/c2c[nH]c3ccc(OC)cc23)c2ccccc21.[I-] [(E)-4-(2-(5-methoxy-1H-indol-3-yl)vinyl)-1-n-octylquinolinium iodide, reference compound] was tested, and the “fluorescence intensity, cancer cells vs normal cells, complete medium” value [2] was “no significant difference in fluorescence intensity between cancer cells and normal cells”, the “selectivity for cancer cells” value [2] was “non-selective for cancer cells” and the “way of entering cells” value (HeLa cells) was “enters cells mainly via free diffusion rather than active transport”. The “red fluorescence at 37 °C compared with 4 °C” value (HeLa cells) was “no obvious difference in fluorescence intensity”.

For CCCCCCCCCCCC[n+]1ccc(/C=C/c2c[nH]c3ccc(OC)cc23)c2ccccc21.[I-] [Example 1, (E)-4-(2-(5-methoxy-1H-indol-3-yl)vinyl)-1-n-dodecylquinolinium iodide], the “fluorescence peak of bovine serum albumin” value (bovine serum albumin; PBS, compound 0 to 15 μM, 280 nm EX) was “gradually decreases”, the affinity for albumin (bovine serum albumin; bovine serum albumin in PBS) was “high affinity for albumin” and the “binding constant with albumin” value (bovine serum albumin; bovine serum albumin in PBS, compound 0 to 15 μM, 280 nm EX, double-logarithmic fit) was 1.35×10^8. The “cell debris near HeLa cell spheroids” value (HeLa cell spheroids) was “many cell debris appear near the cell spheroids”, the “growth of cancerous HeLa cell spheroids” value (HeLa cell spheroids) was “significantly inhibits and disrupts the growth” and the “size of HeLa cell spheroids” value (HeLa cell spheroids; vs blank control and before administration) was “much smaller than those in the blank control as well as than the cell spheroids before drug administration”. For the same molecule, the “selective killing effect on cancer cells” value (HeLa cell spheroids; HeLa vs HEK293 cell spheroids) was “significant selective killing effect on cancer cells”, the “growth inhibition of normal HEK293 cell spheroids” value (HEK293 cell spheroids) was “does not cause significant growth inhibition” and the “size and shape of HEK293 cell spheroids” value (HEK293 cell spheroids; vs blank control) was “do not change significantly compared with the blank control”. For the same molecule, the “fluorescence of LysoSensor Green” value [3] was “greatly weakened”, the “lysosomal pH” value [3] was “increases significantly” and the “autophagy activation / modulation” value (HeLa cells (autophagy)) was “can activate autophagy”. The “generation of vacuoles (autophagic vacuoles/vesicles and autophagosomes) in the cytoplasm” value (HeLa cells (autophagy)) was “a large number of vacuoles (autophagic vacuoles and autophagosomes) are generated”, the “fluorescence intensity, cancer cells vs normal cells, serum-free” value ([2]; DMEM (serum-free)) was “almost no difference in fluorescence intensity between cancer cells and normal cells” and the “fluorescence intensity, cancer cells vs normal cells, complete medium” value [2] was “the fluorescence intensity of cancer cells is significantly higher than the fluorescence intensity of normal cells”. The “selectivity for cancer cells” value [2] was “high selectivity for cancer cells”, the “entry into cancer cells vs normal cells, serum-free” value ([2]; serum-free medium) was “no significant difference” and the “fluorescence of rhodamine 123” value [4] was “greatly weakened”. The mitochondrial membrane potential [4] was “decreases significantly”, the “way of entering cells” value (HeLa cells) was “enters cells mainly via active transport” and the “red fluorescence at 37 °C compared with 4 °C” value (HeLa cells) was “significantly stronger”. For the same molecule, the “fusion of mitochondria and lysosomes / autophagic flux” value [5] was “can prevent fusion of cellular mitochondria and lysosomes and block autophagic flux”, the “overlap of mitochondrial and lysosomal fluorescence” value [5] was “almost no overlap” and the “distribution of compound fluorescence in organelles” value [1] was “distributed in the two organelles, mitochondria and lysosomes”.

Reference: patent US20260337176A1, “AUTOPHAGY REGULATOR AND USE THEREOF” (SHENZHEN INSTITUTES OF ADVANCED TECHNOLOGY, CHINESE ACADEMY …, priority 2023, published 2026)
